The record followed here is US20240150401A1, “INSECT NEUROPEPTIDES 7” (Solasta Bio Limited, priority 2022, published 2024).

Common to all, as to assay type: in vivo
The test system of one data set is Aphis gossypii. As to the kind of experiment: Field trials on cotton and melon (AgriScience). The settings on record: unformulated, naturally infested, comparable to commercial insecticides (FIGS. 11, 12). How it is done: (§1) Field trials for peptide SB-P-66, unformulated, against various insects were conducted by third-party organisations PGRO and AgriScience.
In a further data set the test system is bees. The data set is described as follows: Bee oral toxicity test (adapted from OECD Test No. 247: Bumblebee, Acute Oral Toxicity Test). As to conditions: 96 hours after application, compared to Imidacloprid (FIG. 9). How it is done: Bee oral testing protocol was carried out adapted from OECD Test No. 247: Bumblebee, Acute Oral Toxicity Test. The toxicity of SB-P-66 was compared with a negative control of sucrose or vehicle, and with a current commercial insecticide Imidacloprid.

A further data set relates to Myzus persicae aphids. The data set is described as follows: Leaf dip assay (IRAC susceptibility test method 019), mortality assessment. The settings on record: unformulated, mortality assessed at 72, 96 and 120 hours, compared to vehicle and Spirotetramat (FIGS. 6-8). As to the method: The assay was carried out based on IRAC susceptibility test method 019 (https://irac-online.org/methods/aphids-adultnymphs/).
Fill a small 4 cm wide 3 cm high dish with a 1% agar treatment solution of the active chemical or control (ensuring 1 cm gap between the agar and the lid) and leave to set. Dip a 2.5 cm leaf disc into 3 ml of treatment solution allowing the treatment to coat the leaf. Leave the disc to dry for 1 hour and place onto the set agar. Place insects (Myzus persicae aphids) onto each of the leaf discs. Each unit is sealed with a close-fitting, ventilated lid. Place the agar dishes in a small plastic tray lined with moist tissue paper and ensure the water trays in the bottom of the incubator are filled with clean water and place within the incubator. An assessment of mortality is made at 72, 96 and 120 hours. Leaf dip assays were performed with SB-P-66, and compared to a negative control vehicle and a current commercial insecticide Spirotetramat. The activity of SB-P-66 is shown in FIGS. 6 and 7; SB-P-66 has good activity whilst being eco-friendly and targeted to specific pests unlike broad spectrum chemical insecticides such as Spirotetramat.

Data set [1] has as its system Amrasca biguttula (leaf hopper). The data set is described as follows: Field trials. The settings on record: unformulated; naturally infested; over time; comparable to commercial insecticides (FIG. 14). How it is done: as §1
The next data set relates to Myzus persicae. As to the kind of experiment: Field trials. As to conditions: unformulated; comparable to commercial insecticides. As to the method: as §1
Another data set relates to Aphis fabae. As to the kind of experiment: Field trials on vining peas (PGRO). As to conditions: unformulated, naturally infested, comparable to commercial insecticides (FIGS. 10, 13). As to the method:
as §1

In the case of “H-PAFSSWG-NH2 [SB-P-66, [Hy]-PAFSSWG-[NH2]]”, the “efficacy in field trials against Aphis gossypii” value with Aphis gossypii is recorded as “good efficacy”. Also, the “bee oral toxicity (% survival)” value in the data set on bees is listed as “far lower toxicity”. The “activity against Myzus persicae (mortality)” value in the data set on Myzus persicae aphids was “good activity”. The “efficacy in field trials against Amrasca biguttula” value in data set [1] is on record as “good efficacy”. In the data set with Myzus persicae, the “efficacy in field trials against Myzus persicae” value is on record as “good efficacy”. In addition, the “efficacy in field trials against Aphis fabae” value in the data set on Aphis fabae is given as “good efficacy”.
